Measured values published in patent US8247211B2, “Glycopeptide antibiotics” (American Cyanamid Company, priority 2001, dated 2012).
In brackets after ≈: the same amount, converted by molar mass.

What was measured:
Experiment in all cases: In vitro antibacterial evaluation: minimum inhibitory concentration (MIC), broth dilution method
Type in all cases: cell-based
Enterococcus sp. = details: 18 hours at 35° C.
Method in brief: (§1)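 Inoculum: 5×10^5 CFU/mL. Range: 64-0.06 μg/mL. Medium: Muller-Hinton II […]; NCCLS M7-A2 broth dilution. Endpoint: lowest concentration inhibiting growth. Strains include methicillin-, penicillin- and/or vancomycin-resistant clinical isolates.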

Escherichia coli = details: 18 hours at 35° C.
Method in brief: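 An MIC is reported for each organism as the least concentration giving inhibition, using broth dilution over 64-0.06 μg/mL with a 5×10^5 CFU/mL inoculum.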

Staphylococcus sp. = tested on: Staphylococcus sp.
Method in brief: as §1

Streptococcus sp. = details: 18 hours at 35° C.
Method in brief: as §1

[1] = broth dilution, inoculum 5×10^5 CFU/mL

## CC(c1ccc(Cl)cc1)C1NC(=O)CNC(=O)C(CO)NC(=O)C(C(O)C2CNC(=N)N2C2OC(CO)C(O)C(O)C2O)NC(=O)C(C(O)C2CNC(=N)N2)NC(=O)C(Cc2ccc(OC3OC(CO)C(OC4OC5COC(c6ccccc6)OC5C(O)C4O)C(O)C3O)cc2)NC1=O (stereo not drawn) [Example 195, Cyclo[glycyl-4-chloro-β-methylphenylalanyl-O-[4-O-(4,6-O-benzylidenehexopyranosyl)-hexopyranosyl]tyrosyl-3-(2-iminoimidazolidin-4-yl)seryl-3-(3-hexopyranosyl-2-iminoimidazolidin-4-yl)serylseryl]]
Enterococcus sp.; Enterococcus avium (GC 4558)
  MIC Enterococcus avium (GC 4558): 0.5 µg/mL (≈ 0.353 µM)
Enterococcus sp.; Enterococcus faecalis (ATCC 29212)
  MIC Enterococcus faecalis (ATCC 29212): 0.5 µg/mL (≈ 0.353 µM)
Enterococcus sp.; Enterococcus faecalis (GC 2242)
  MIC Enterococcus faecalis (GC 2242): 0.5 µg/mL (≈ 0.353 µM)
Enterococcus sp.; Enterococcus faecalis (GC 2691)
  MIC Enterococcus faecalis (GC 2691): 0.5 µg/mL (≈ 0.353 µM)
Enterococcus sp.; Enterococcus faecalis (GC 3059)
  MIC Enterococcus faecalis (GC 3059): 0.5 µg/mL (≈ 0.353 µM)
Enterococcus sp.; Enterococcus faecalis (GC 4552)
  MIC Enterococcus faecalis (GC 4552): 0.5 µg/mL (≈ 0.353 µM)
Enterococcus sp.; Enterococcus faecalis (GC 4553)
  MIC Enterococcus faecalis (GC 4553): 0.5 µg/mL (≈ 0.353 µM)
Enterococcus sp.; Enterococcus faecalis (GC 4554)
  MIC Enterococcus faecalis (GC 4554): 0.5 µg/mL (≈ 0.353 µM)
Enterococcus sp.; Enterococcus faecalis (GC 6189)
  MIC Enterococcus faecalis (GC 6189): 0.5 µg/mL (≈ 0.353 µM)
Enterococcus sp.; Enterococcus faecium (GC 2243)
  MIC Enterococcus faecium (GC 2243): 0.5 µg/mL (≈ 0.353 µM)
Enterococcus sp.; Enterococcus faecium (GC 4556)
  MIC Enterococcus faecium (GC 4556): 0.5 µg/mL (≈ 0.353 µM)
Enterococcus sp.; Enterococcus faecium (GC 4557)
  MIC Enterococcus faecium (GC 4557): 0.5 µg/mL (≈ 0.353 µM)
Enterococcus sp.; [1]
  MIC Enterococcus avium (GC 4558): 0.5 µg/mL (≈ 0.353 µM)
  MIC Enterococcus faecalis (ATCC 29212): 0.5 µg/mL (≈ 0.353 µM)
  MIC Enterococcus faecalis (GC 2242): 0.5 µg/mL (≈ 0.353 µM)
  MIC Enterococcus faecalis (GC 2691): 0.5 µg/mL (≈ 0.353 µM)
  MIC Enterococcus faecalis (GC 3059): 0.5 µg/mL (≈ 0.353 µM)
  MIC Enterococcus faecalis (GC 4552): 0.5 µg/mL (≈ 0.353 µM)
  MIC Enterococcus faecalis (GC 4553): 0.5 µg/mL (≈ 0.353 µM)
  MIC Enterococcus faecalis (GC 4554): 0.5 µg/mL (≈ 0.353 µM)
  MIC Enterococcus faecalis (GC 6189): 0.5 µg/mL (≈ 0.353 µM)
  MIC Enterococcus faecium (GC 2243): 0.5 µg/mL (≈ 0.353 µM)
  MIC Enterococcus faecium (GC 4556): 0.5 µg/mL (≈ 0.353 µM)
  MIC Enterococcus faecium (GC 4557): 0.5 µg/mL (≈ 0.353 µM)
Escherichia coli; Escherichia coli (ATCC 25922)
  MIC Escherichia coli (ATCC 25922): >0.5 µg/mL
Escherichia coli; Escherichia coli (GC 4559)
  MIC Escherichia coli (GC 4559): >0.5 µg/mL
Escherichia coli; Escherichia coli (GC 4560)
  MIC Escherichia coli (GC 4560): 0.5 µg/mL (≈ 0.353 µM)
Staphylococcus sp.; strain ATCC 29213
  MIC Staphylococcus aureus (ATCC 29213): 0.5 µg/mL (≈ 0.353 µM)
Staphylococcus sp.; strain GC 1131
  MIC Staphylococcus aureus (GC 1131): 0.5 µg/mL (≈ 0.353 µM)
Staphylococcus sp.; strain GC 3051
  MIC Staphylococcus aureus (GC 3051): 0.5 µg/mL (≈ 0.353 µM)
Staphylococcus sp.; strain GC 3053
  MIC Staphylococcus aureus (GC 3053): 0.5 µg/mL (≈ 0.353 µM)
Staphylococcus sp.; strain GC 4541
  MIC Staphylococcus aureus (GC 4541): 0.5 µg/mL (≈ 0.353 µM)
Staphylococcus sp.; strain GC 4542
  MIC Staphylococcus aureus (GC 4542): 0.5 µg/mL (≈ 0.353 µM)
Staphylococcus sp.; strain GC 4543
  MIC Staphylococcus aureus-SMITH (GC 4543): 0.5 µg/mL (≈ 0.353 µM)
Staphylococcus sp.; strain GC 4544
  MIC Staphylococcus aureus (GC 4544): 0.5 µg/mL (≈ 0.353 µM)
Staphylococcus sp.; strain GC 4545
  MIC Staphylococcus aureus (GC 4545): 0.5 µg/mL (≈ 0.353 µM)
Staphylococcus sp.; strain GC 4546
  MIC Staphylococcus haemolyticus (GC 4546): 2 µg/mL (≈ 1.41 µM)
Staphylococcus sp.; strain GC 4547
  MIC Coagulase Negative Staphylococcus (GC 4547): 4 µg/mL (≈ 2.82 µM)
Staphylococcus sp.; strain GC 4548
  MIC Coagulase Negative Staphylococcus (GC 4548): 2 µg/mL (≈ 1.41 µM)
Staphylococcus sp.; strain GC 4549
  MIC Coagulase Negative Staphylococcus (GC 4549): 1 µg/mL (≈ 0.705 µM)
Staphylococcus sp.; strain GC 4551
  MIC Coagulase Negative Staphylococcus (GC 4551): 4 µg/mL (≈ 2.82 µM)
Staphylococcus sp.; strain GC 6257
  MIC Coagulase Negative Staphylococcus (GC 6257): 2 µg/mL (≈ 1.41 µM)
Streptococcus sp.; Streptococcus agalactiae (GC 4564)
  MIC Streptococcus agalactiae (GC 4564): 0.5 µg/mL (≈ 0.353 µM)
Streptococcus sp.; Streptococcus pneumoniae (ATCC 6301)
  MIC Streptococcus pneumoniae (ATCC 6301): 0.12 µg/mL (≈ 0.0846 µM)
Streptococcus sp.; Streptococcus pneumoniae (GC 1894)
  MIC Streptococcus pneumoniae (GC 1894): 0.12 µg/mL (≈ 0.0846 µM)
Streptococcus sp.; Streptococcus pneumoniae (GC 4565)
  MIC Streptococcus pneumoniae (GC 4565): 0.12 µg/mL (≈ 0.0846 µM)
Streptococcus sp.; Streptococcus pyogenes (GC 4563)
  MIC Streptococcus pyogenes (GC 4563): 0.12 µg/mL (≈ 0.0846 µM)
Streptococcus sp.; [1]
  MIC Streptococcus agalactiae (GC 4564): 0.5 µg/mL (≈ 0.353 µM)
  MIC Streptococcus pneumoniae (ATCC 6301): 0.12 µg/mL (≈ 0.0846 µM)
  MIC Streptococcus pneumoniae (GC 1894): 0.12 µg/mL (≈ 0.0846 µM)
  MIC Streptococcus pneumoniae (GC 4565): 0.12 µg/mL (≈ 0.0846 µM)
  MIC Streptococcus pyogenes (GC 4563): 0.12 µg/mL (≈ 0.0846 µM)
